Measurements: ChEMBL document CHEMBL4270495, “Oleanane-, ursane-, and quinone methide friedelane-type triterpenoid derivatives: Recent advances in cancer treatment” (Eur J Med Chem, 2017)

Key:
MDA-MB-231 [1] = test: Cytotoxicity in human MDA-MB-231 cells assessed as reduction in cell viability incubated for 48 hrs by SRB assay; type: functional; conditions: MDA-MB-231, 48 h
MCF7 = test: Cytotoxicity in human MCF7 cells assessed as reduction in cell viability incubated for 48 hrs by SRB assay; type: functional, cell-based; conditions: MCF7, 48 h
HeLa [2] = test: Cytotoxicity in human HeLa cells assessed as reduction in cell viability incubated for 24 hrs by MTT assay; type: functional, cell-based
[3] = Cytotoxicity in human HELF cells assessed as reduction in cell viability incubated for 24 hrs by MTT assay; type: cell-based
HepG2 = test: Cytotoxicity in human HepG2 cells assessed as reduction in cell viability incubated for 24 hrs by MTT assay; type: functional, cell-based; conditions: HepG2, 24 h
MDA-MB-231 [4] = test: Cytotoxicity in human MDA-MB-231 cells assessed as reduction in cell viability incubated for 96 hrs by SRB assay; type: functional, cell-based; conditions: MDA-MB-231, 96 h
PC-3 = test: Cytotoxicity in human PC3 cells assessed as reduction in cell viability incubated for 96 hrs by SRB assay; type: functional, cell-based; conditions: PC-3, 96 h
HT-29 [5] = test: Cytotoxicity in human HT-29 cells assessed as reduction in cell viability incubated for 96 hrs by SRB assay; type: functional, cell-based; conditions: HT-29, 96 h
4T1 = test: Cytotoxicity in mouse 4T1 cells assessed as reduction in cell viability incubated for 96 hrs by SRB assay; type: functional, cell-based; conditions: 4T1, 96 h
DU-145 = test: Cytotoxicity in human DU145 cells assessed as reduction in cell viability incubated for 96 hrs by SRB assay; type: functional, cell-based; conditions: DU-145, 96 h
HCT-116 = test: Cytotoxicity in human HCT116 cells assessed as reduction in cell viability incubated for 96 hrs by SRB assay; type: functional, cell-based; conditions: HCT-116, 96 h
HCT-8 = test: Cytotoxicity in human HCT8 cells assessed as reduction in cell viability incubated for 96 hrs by SRB assay; type: functional, cell-based; conditions: HCT-8, 96 h
CT26 = test: Cytotoxicity in mouse CT26 cells assessed as reduction in cell viability incubated for 96 hrs by SRB assay; type: functional, cell-based; conditions: CT26, 96 h
HeLa [6] = test: Cytotoxicity in human HeLa cells assessed as reduction in cell viability incubated for 72 hrs by MTT assay; type: functional, cell-based
Bel-7402 = test: Cytotoxicity in human Bel7402 cells assessed as reduction in cell viability incubated for 72 hrs by MTT assay; type: functional, cell-based; conditions: Bel-7402, 72 h
HT-29 [7] = test: Cytotoxicity in human HT-29 cells assessed as reduction in cell viability incubated for 72 hrs by MTT assay; type: functional, cell-based; conditions: HT-29, 72 h
BGC-823 = test: Cytotoxicity in human BGC823 cells assessed as reduction in cell viability incubated for 72 hrs by MTT assay; type: functional, cell-based; conditions: BGC-823, 72 h

Row | SMILES | IC50 (MDA-MB-231 [4]) | IC50 (PC-3) | IC50 (HT-29 [5]) | IC50 (4T1) | IC50 (DU-145) | IC50 (HCT-116) | IC50 (HCT-8) | IC50 (CT26) | further results
1 | C[C@H]1[C@H](C)CC[C@]2(C(=O)OCCCn3cc(COC(=O)[C@]45CC[C@@H](C)[C@H](C)[C@@H]4C4=CC[C@@H]6[C@@]7(C)CC[C@H](O)[C@](C)(CO)[C@@H]7CC[C@]6(C)[C@]4(C)CC5)cn3)CC[C@]3(C)C(=CC[C@@H]4[C@@]5(C)CC[C@H](O)C(C)(C)[C@@H]5CC[C@]43C)[C@H]12 | – | – | – | – | – | – | – | – | GI50 (MDA-MB-231 [1]): 4.5 µM; GI50 (MCF7): 12.1 µM
2 | CC(=O)O[C@H]1CC[C@]2(C)[C@H]3CC=C4[C@@H]5[C@@H](C)[C@H](C)CC[C@]5(C(=O)N5CCNCC5)CC[C@@]4(C)[C@]3(C)CC[C@H]2C1(C)C | – | – | – | – | – | – | – | – | IC50 (HeLa [2]): 7 µM; IC50 [3]: 9.1 µM; IC50 (HepG2): 4.8 µM
3 | COC(=O)[C@@]1(C)CC[C@]2(C)CC[C@]3(C)C(=CC(=O)[C@@H]4[C@@]5(C)Cc6cn(C(=O)CCC7CCNCC7)nc6C(C)(C)[C@@H]5CC[C@]43C)[C@H]2C1 | 9.56 µM | 12 µM | 12.5 µM | 5.77 µM | 13.9 µM | 6.36 µM | 13.6 µM | 13 µM | –
4 | COC(=O)[C@@]1(C)CC[C@]2(C)CC[C@]3(C)C(=CC(=O)[C@@H]4[C@@]5(C)Cc6cn(S(C)(=O)=O)nc6C(C)(C)[C@@H]5CC[C@]43C)[C@H]2C1 | 28.6 µM | 18.9 µM | 18.5 µM | 12.5 µM | > 50 µM | 8.7 µM | 24.5 µM | 15.2 µM | –
5 | C[C@H]1[C@H](C)CC[C@]2(C(=O)OCCCn3cc(COC(=O)[C@]45CC[C@@H](C)[C@H](C)[C@@H]4C4=CC[C@@H]6[C@@]7(C)CC[C@H](O)C(C)(C)[C@@H]7CC[C@]6(C)[C@]4(C)CC5)cn3)CC[C@]3(C)C(=CC[C@@H]4[C@@]5(C)CC[C@H](O)C(C)(C)[C@@H]5CC[C@]43C)[C@H]12 | – | – | – | – | – | – | – | – | GI50 (MDA-MB-231 [1]): 3.8 µM; GI50 (MCF7): 12.7 µM
6 | C[C@H]1[C@H](C)CC[C@]2(C(=O)N3CCNCC3)CC[C@]3(C)C(=CC[C@@H]4[C@@]5(C)CC[C@H](O)C(C)(C)[C@@H]5CC[C@]43C)[C@H]12 | – | – | – | – | – | – | – | – | IC50 (HeLa [2]): 14.4 µM; IC50 [3]: 12.6 µM; IC50 (HepG2): 5.1 µM
7 | CC1(C)c2n[nH]cc2C[C@]2(C)[C@H]3C(=O)C=C4[C@H]5C[C@@](C)(C(=O)OCc6ccccc6)CC[C@]5(C)CC[C@@]4(C)[C@]3(C)CC[C@@H]12 | 18.1 µM | 12.3 µM | 15.2 µM | 6.32 µM | 19 µM | 7.49 µM | 13.3 µM | 19.8 µM | –
8 | C[C@H]1[C@H](C)CC[C@]2(C(=O)O)CC[C@]3(C)C(=CC[C@@H]4[C@@]5(C)C[C@@H](O)[C@H](O)C(C)(C)[C@@H]5CC[C@]43C)[C@H]12 [COROSOLIC ACID] | – | – | – | – | – | – | – | – | GI50 (MDA-MB-231 [1]): 15.3 µM; GI50 (MCF7): 18.5 µM
9 | COC(=O)[C@@]1(C)CC[C@]2(C)CC[C@]3(C)C(=CC(=O)[C@@H]4[C@@]5(C)Cc6cn(C(=O)C7CCNCC7)nc6C(C)(C)[C@@H]5CC[C@]43C)[C@H]2C1 | 19.2 µM | 22.4 µM | 25.2 µM | 5.34 µM | 20.8 µM | 23.2 µM | 22.3 µM | 21.4 µM | –
10 | CC(=O)O[C@H]1CC[C@]2(C)[C@H]3CC=C4[C@@H]5[C@@H](C)[C@H](C)CC[C@]5(C(=O)NCCCCCCCCN)CC[C@@]4(C)[C@]3(C)CC[C@H]2C1(C)C | – | – | – | – | – | – | – | – | IC50 (HeLa [2]): 8.6 µM; IC50 [3]: 36.1 µM; IC50 (HepG2): 17.3 µM
11 | COC(=O)[C@@]1(C)CC[C@]2(C)CC[C@]3(C)C(=CC(=O)[C@@H]4[C@@]5(C)Cc6cn(OC(C)=O)nc6C(C)(C)[C@@H]5CC[C@]43C)[C@H]2C1 | 32.3 µM | 25.4 µM | 31 µM | 20.1 µM | 36.7 µM | 14.1 µM | 29.2 µM | 33 µM | –
12 | Cc1nc(C)c(COC(=O)[C@]23CCC(C)(C)C[C@H]2C2=CC[C@@H]4[C@@]5(C)CC[C@H](O)C(C)(C)[C@@H]5CC[C@@]4(C)[C@]2(C)CC3)nc1C | – | – | – | – | – | – | – | – | IC50 (HeLa [6]): 28.7 µM; IC50 (Bel-7402): 6.36 µM; IC50 (HT-29 [7]): 29.8 µM; IC50 (BGC-823): > 30 µM
13 | C=C(C)[C@@H]1CC[C@]2(C(=O)OCc3cnn(CCCOC(=O)[C@]45CC[C@@H](C)[C@H](C)[C@H]4C4=CC[C@@H]6[C@@]7(C)CC[C@H](O)C(C)(C)[C@@H]7CC[C@@]6(C)[C@]4(C)CC5)c3)CC[C@]3(C)[C@H](CC[C@@H]4[C@@]5(C)CC[C@H](O)C(C)(C)[C@@H]5CC[C@]43C)[C@@H]12 | – | – | – | – | – | – | – | – | GI50 (MDA-MB-231 [1]): 1.4 µM; GI50 (MCF7): 14.4 µM
14 | COC(=O)[C@@]1(C)CC[C@]2(C)CC[C@]3(C)C(=CC(=O)[C@@H]4[C@@]5(C)Cc6cn(C(=O)C7CCCNC7)nc6C(C)(C)[C@@H]5CC[C@]43C)[C@H]2C1 (stereo not given in full) | 24 µM | 23.1 µM | 21.8 µM | 9.68 µM | 21.9 µM | 22 µM | 23.8 µM | 23.7 µM | –
15 | COC(=O)[C@@]1(C)CC[C@]2(C)CC[C@]3(C)C(=CC(=O)[C@@H]4[C@@]5(C)Cc6c(n[nH]c6C(F)(F)F)C(C)(C)[C@@H]5CC[C@]43C)[C@H]2C1 | 27.4 µM | 19.8 µM | 27.6 µM | 15.7 µM | 33.6 µM | 11.9 µM | 20 µM | 22 µM | –
16 | CC(=O)O[C@H]1CC[C@]2(C)[C@H]3CC=C4[C@@H]5[C@@H](C)[C@H](C)CC[C@]5(C(=O)N5CCNCC5C)CC[C@@]4(C)[C@]3(C)CC[C@H]2C1(C)C (stereo not given in full) | – | – | – | – | – | – | – | – | IC50 (HeLa [2]): 6.3 µM; IC50 [3]: 14.8 µM; IC50 (HepG2): 5.2 µM
17 | C[C@H]1[C@H](C)CC[C@]2(C(=O)NCCCCCCCCN)CC[C@]3(C)C(=CC[C@@H]4[C@@]5(C)CC[C@H](O)C(C)(C)[C@@H]5CC[C@]43C)[C@H]12 | – | – | – | – | – | – | – | – | IC50 (HeLa [2]): 16.9 µM; IC50 [3]: 39.4 µM; IC50 (HepG2): 26.7 µM
18 | COC(=O)[C@@]1(C)CC[C@]2(C)CC[C@]3(C)C(=CC(=O)[C@@H]4[C@@]5(C)Cc6cn(C(=O)CCCC7CCNCC7)nc6C(C)(C)[C@@H]5CC[C@]43C)[C@H]2C1 | 9.76 µM | 5.19 µM | 8.76 µM | 6.09 µM | 7.54 µM | 6.99 µM | 11.7 µM | 8.08 µM | –
19 | CCOC(=O)c1[nH]nc2c1C[C@]1(C)[C@H]3C(=O)C=C4[C@H]5C[C@@](C)(C(=O)OCc6ccccc6)CC[C@]5(C)CC[C@@]4(C)[C@]3(C)CC[C@H]1C2(C)C | 16.6 µM | 19.6 µM | 12.5 µM | 5.75 µM | 23.8 µM | 8.2 µM | 9.96 µM | 17.7 µM | –
20 | COC(=O)[C@@]1(C)CC[C@]2(C)CC[C@]3(C)C(=CC(=O)[C@@H]4[C@@]5(C)Cc6c[nH]nc6C(C)(C)[C@@H]5CC[C@]43C)[C@H]2C1 | 33.2 µM | 26.5 µM | 32 µM | 14.7 µM | 30.3 µM | 13.2 µM | 31.5 µM | 26.1 µM | –
21 | COC(=O)[C@@]1(C)CC[C@]2(C)CC[C@]3(C)C(=CC(=O)[C@@H]4[C@@]5(C)Cc6cn(C(=O)CC7CCNCC7)nc6C(C)(C)[C@@H]5CC[C@]43C)[C@H]2C1 | 10.1 µM | 11.7 µM | 12.1 µM | 5.8 µM | 13.3 µM | 12.1 µM | 8.98 µM | 9.87 µM | –
